The test system of experiment [1] is human umbilical vein endothelial cells (HUVEC). Kind of experiment: HUVEC proliferation assay (VEGF-stimulated, MTT). The experiment is classed as cell-based. Particulars: Homo sapiens, HUVEC, Table 1.
The target of another experiment is CDK4/Cyclin D3 complex (Homo sapiens, UniProt P11802). The experiment can be described thus: biochemical. Particulars: read-out: CDK4 * (% inhibition).
Another experiment concerns the target LCK tyrosine kinase (Homo sapiens, UniProt P06239, C224D/P223M). Kind of experiment: LCK spectrophotometric assay. Particulars: Table 1; compound concentration 1 µM; read-out: Lck-P* (% inhibition). Format: biochemical. As for the experimental part:
The spectrophotometric assay was carried out as described above for VEGF-R2, except for the following changes in concentration: LCK = 60 nM, MgCl2 = 0 mM, poly(E4Y1) = 20 mM.

Another experiment deals with T1, human FAK (FAKcd409) (Homo sapiens, UniProt Q05397, P410T).
T1 construct: comprises residues methionine 409 to glutamate 689; made in house; host or cells: baculovirus vector expression system (insect cells)
T1 sequence (Q05397 409-689 P410T): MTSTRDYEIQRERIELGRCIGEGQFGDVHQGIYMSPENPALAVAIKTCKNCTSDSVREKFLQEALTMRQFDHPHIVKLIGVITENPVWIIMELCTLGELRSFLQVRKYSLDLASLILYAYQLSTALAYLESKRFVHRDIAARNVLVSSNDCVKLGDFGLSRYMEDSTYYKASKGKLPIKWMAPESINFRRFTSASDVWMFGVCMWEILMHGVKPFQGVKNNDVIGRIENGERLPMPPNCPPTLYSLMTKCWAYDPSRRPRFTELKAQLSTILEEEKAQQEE
Kind of experiment: FAK fluorescence polarization assay. The experiment is classed as biochemical. Particulars: Table 5; 1 µM; read-out: % Inhibition @ 1 µM FAK. The gist of the method:
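Baculovirus-expressed FAK catalytic domain (FAKcd409, 5 nM) phosphorylating 1 mg/ml poly Glu-Tyr (4:1) with 1 mM ATP in 100 mM Hepes pH 7.5, 10 mM MgCl2, 1 mM DTT. Stopped with EDTA; fluorescent peptide and anti-phosphotyrosine antibody added, product detected by fluorescence polarization.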

Another experiment concerns the target T2, human CHK1 (FL-CHK1) (Homo sapiens, UniProt O14757).
T2 construct: C-terminally His-tagged full-length human CHK1 (FL-CHK1) was expressed using the baculovirus/insect cell system; made in house; host or cells: baculovirus/insect cell system
T2 sequence (O14757 1-476): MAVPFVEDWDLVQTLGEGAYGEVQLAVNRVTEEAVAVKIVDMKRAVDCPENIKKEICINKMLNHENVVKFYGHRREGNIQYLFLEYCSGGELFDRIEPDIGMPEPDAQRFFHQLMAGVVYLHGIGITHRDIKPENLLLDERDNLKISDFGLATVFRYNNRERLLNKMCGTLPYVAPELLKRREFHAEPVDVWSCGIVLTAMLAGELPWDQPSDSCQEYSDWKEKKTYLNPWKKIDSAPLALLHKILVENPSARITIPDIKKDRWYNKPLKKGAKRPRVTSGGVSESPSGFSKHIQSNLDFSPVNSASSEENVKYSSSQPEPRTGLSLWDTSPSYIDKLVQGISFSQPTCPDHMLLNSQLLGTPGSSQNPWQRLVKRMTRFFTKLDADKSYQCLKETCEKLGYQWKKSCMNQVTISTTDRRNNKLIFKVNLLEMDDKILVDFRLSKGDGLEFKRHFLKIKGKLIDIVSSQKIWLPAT
Kind of experiment: CHK1 coupled spectrophotometric assay. Particulars: read-out: CHK -1* (% inhibition). The experiment is classed as biochemical. The gist of the method: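 His-tagged full-length human CHK1 from baculovirus/insect cells, 10 nM, phosphorylating Syntide-2. ADP formation coupled via PK/LDH with PEP to NADH oxidation, followed as absorbance decrease at 340 nm. Ki from initial rates at varying compound concentrations.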

The next experiment addresses CDK2/Cyclin A complex (Homo sapiens, UniProt P24941). The experiment can be described thus: CDK2/Cyclin A assay ([32P]ATP incorporation into Rb fragment). Particulars: read-out: CDK2 * (% inhibition). The experiment is classed as biochemical.
The target in experiment [2] is T3, phosphorylated Tie-2 (aa 775-1122) (Homo sapiens, UniProt Q02763).
T3 construct: 4 to 12 nM phosphorylated Tie-2 (aa 775-1122); made in house; host or cells: insect cells
T3 sequence (Q02763 775-1122): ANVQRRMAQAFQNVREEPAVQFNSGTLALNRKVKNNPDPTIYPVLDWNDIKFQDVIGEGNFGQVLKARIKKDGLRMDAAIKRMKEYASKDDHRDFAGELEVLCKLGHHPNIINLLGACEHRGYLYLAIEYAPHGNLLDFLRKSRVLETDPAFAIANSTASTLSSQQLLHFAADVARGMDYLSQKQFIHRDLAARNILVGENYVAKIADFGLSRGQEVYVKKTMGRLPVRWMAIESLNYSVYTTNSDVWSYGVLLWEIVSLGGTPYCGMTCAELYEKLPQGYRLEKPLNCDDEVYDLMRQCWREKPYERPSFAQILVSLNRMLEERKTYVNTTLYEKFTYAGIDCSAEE
The experiment can be described thus: TIE-2 spectrophotometric assay. Format: biochemical. Particulars: Table 5; 1 µM; bold values spectrophotometric assay, non-bolded DELFIA assay (bold not visible here); read-out: % Inhibition @ 1 µM Tie2-P. Put shortly:
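Human phosphorylated Tie-2 kinase activity was measured spectrophotometrically by coupling ADP formation, from phosphoryl transfer to poly(Glu4 Tyr), to NADH oxidation via pyruvate kinase and lactate dehydrogenase. Absorbance loss at 340 nm was read on a Beckman DU650. Reactions held 1 mM phosphoenolpyruvate, 0.24 mM NADH, 40 mM MgCl2, 5 mM DTT, 0.5 mM ATP, and 15 units/mL each of PK and LDH in 100 mM HEPES, pH 7.5.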

Setting [3] is: + albumin, read-out: HUVEC + albumin IC50.

Structures are written as SMILES. Read-outs that look alike come from different tables or passages of the source.

CDK4/Cyclin D3 complex, sequence (P11802 whole entry): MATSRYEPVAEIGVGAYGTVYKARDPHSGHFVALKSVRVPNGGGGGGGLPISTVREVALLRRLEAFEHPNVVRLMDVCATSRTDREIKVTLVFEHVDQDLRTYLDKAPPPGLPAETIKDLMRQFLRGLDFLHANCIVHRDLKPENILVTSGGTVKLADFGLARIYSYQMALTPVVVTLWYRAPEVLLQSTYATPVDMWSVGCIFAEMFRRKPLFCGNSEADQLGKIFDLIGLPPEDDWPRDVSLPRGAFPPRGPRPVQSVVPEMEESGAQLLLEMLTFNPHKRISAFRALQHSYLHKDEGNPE
CDK4/Cyclin D3 complex, sequence (P30281 whole entry partner): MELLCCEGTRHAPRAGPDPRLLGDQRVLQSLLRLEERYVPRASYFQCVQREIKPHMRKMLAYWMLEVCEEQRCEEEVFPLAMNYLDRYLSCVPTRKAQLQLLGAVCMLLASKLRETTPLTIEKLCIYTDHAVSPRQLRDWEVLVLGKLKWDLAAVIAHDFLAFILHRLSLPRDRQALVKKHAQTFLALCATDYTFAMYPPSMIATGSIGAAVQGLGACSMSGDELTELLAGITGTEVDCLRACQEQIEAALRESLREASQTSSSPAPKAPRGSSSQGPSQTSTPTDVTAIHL
LCK tyrosine kinase, sequence (P06239 223-509 P223M/C224D): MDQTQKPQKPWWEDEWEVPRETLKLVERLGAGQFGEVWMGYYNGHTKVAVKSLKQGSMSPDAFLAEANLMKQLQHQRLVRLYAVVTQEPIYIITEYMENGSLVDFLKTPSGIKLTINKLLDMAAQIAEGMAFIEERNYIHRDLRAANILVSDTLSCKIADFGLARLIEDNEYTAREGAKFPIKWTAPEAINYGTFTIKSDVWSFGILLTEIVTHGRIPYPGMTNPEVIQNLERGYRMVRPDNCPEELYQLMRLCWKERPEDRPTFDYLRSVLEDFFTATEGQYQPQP

One may read the IC50 as the point on the concentration scale where inhibition reaches its midpoint. A word on the inhibition: it is how much of the control response was suppressed. For `CCONC(=O)c1ccccc1Sc1ccc2c(/C=C/c3ccccn3)n[nH]c2c1` [Reference Example 35(dd), 6-[2-(ethoxycarbamoyl)phenylsufanyl]-3-E-[2-(pyridin-2-yl)ethenyl]-1H-indazole], the figures for the IC50 in experiment [1] (setting [3]) and in experiment [1] (read-out: HUVEC IC50) were 2.9 nM and 0.18 nM, respectively. The inhibition at 1 µM was 8% on CDK4/Cyclin D3 complex; 17% at LCK tyrosine kinase; 4% at human FAK (FAKcd409); 0% at human CHK1 (FL-CHK1); 7% at CDK2/Cyclin A complex; 48% in experiment [2].

For the compound `CCn1nc(C)cc1C(=O)Nc1cccc(C(=O)c2ccc3c(/C=C/c4ccccn4)n[nH]c3c2)c1` [Reference Example 41(a), 6-[3-((1-Ethyl-3-methyl-1H-pyrazol-5-yl)carboxamido)benzoyl]. 3-E-[2-(pyridin-2-yl)ethenyl]-1H-indazole], the figures for the IC50 in experiment [1] (setting [3]) and in experiment [1] (read-out: HUVEC IC50) were 4.4 nM and 0.48 nM, respectively. Besides, the inhibition at 1 µM at CDK4/Cyclin D3 complex came to 6%; at LCK tyrosine kinase, 50%; at human FAK (FAKcd409), 5%; at human CHK1 (FL-CHK1) it was 0%; on CDK2/Cyclin A complex, 0%; in experiment [2] it was 50%.

On to `CCn1nc(C)cc1C(=O)Nc1cc(C(=O)c2ccc3c(/C=C/c4ccccn4)n[nH]c3c2)ccc1C` [Reference Example 41(ee), 6-[3-((1-Ethyl-3-methyl-1H-pyrazol-5-yl)carboxamido)-4-methylbenzoyl]-3-E-[2-(pyridin-2-yl)ethenyl]-1H-indazole], for which the 50% inhibitory concentration (IC50) in experiment [1] (setting [3]) was found to be 4.3 nM; in experiment [1] (read-out: HUVEC IC50), 0.24 nM. For the same compound, the inhibition at 1 µM stood at 2% at CDK4/Cyclin D3 complex; 13% on LCK tyrosine kinase; 7% on human FAK (FAKcd409); 0% at human CHK1 (FL-CHK1); 0% on CDK2/Cyclin A complex; 41% in experiment [2].

Consider `CCCn1nc(C)cc1C(=O)Nc1cccc(C(=O)c2ccc3c(/C=C/c4ccccn4)n[nH]c3c2)c1` [Reference Example 41(r)], for which, in experiment [1] (setting [3]), the IC50 stood at 11 nM. Besides, the inhibition at 1 µM worked out at 5% on CDK4/Cyclin D3 complex; 55% on LCK tyrosine kinase; 5% at human FAK (FAKcd409); 0% at human CHK1 (FL-CHK1); 0% on CDK2/Cyclin A complex; 56% in experiment [2].

As to `CC(C)ONC(=O)c1ccccc1Sc1ccc2c(/C=C/c3ccccn3)n[nH]c2c1` [Reference Example 35(k)], the IC50 in experiment [1] (setting [3]) came out at 2.2 nM. Further, the inhibition at 1 µM was found to be 7% on CDK4/Cyclin D3 complex; 6% at LCK tyrosine kinase; 7% on human FAK (FAKcd409); 0% on human CHK1 (FL-CHK1); 8% at CDK2/Cyclin A complex; 55% in experiment [2].

Regarding `O=C(NNc1ccccn1)c1ccccc1Sc1ccc2c(/C=C/c3ccccn3)n[nH]c2c1` [Reference Example 35(n), 6-[2-(N^2-(pyrid-2-ylhydrazino)carbonyl)phenylsulfanyl]-3-E-[2-(pyridin-2-yl)ethenyl]-1H-indazole], the IC50 in experiment [1] (setting [3]) turned out to be 11 nM; in experiment [1] (read-out: HUVEC IC50) it was 0.11 nM. The inhibition at 1 µM at CDK4/Cyclin D3 complex was found to be 10%; on LCK tyrosine kinase, 58%; on human FAK (FAKcd409), 1%; on human CHK1 (FL-CHK1) it was 23%; on CDK2/Cyclin A complex, 4%; in experiment [2], 82%.

In the case of `C#CCNC(=O)c1ccccc1Sc1ccc2c(/C=C/c3ccccn3)n[nH]c2c1` [Reference Example 35(cc), 6-[2-(2-Propynylcarbamoyl)phenylsulfany]-3-E-[2-(pyridin-2-yl)ethenyl]-1H-indazole], the figures for the IC50 in experiment [1] (setting [3]) and in experiment [1] (read-out: HUVEC IC50) were 1.6 nM and 0.05 nM, respectively. In addition, the inhibition at 1 µM was 6% on CDK4/Cyclin D3 complex; 15% on LCK tyrosine kinase; 7% at human FAK (FAKcd409); 0% at human CHK1 (FL-CHK1); 5% on CDK2/Cyclin A complex; 47% in experiment [2].

As for `CCn1nc(C)cc1C(=O)Nc1cccc(Oc2ccc3c(/C=C/c4ccccn4)n[nH]c3c2)c1` [Reference Example 31(d), 6-[3-((1-Ethyl-3-methyl-1H-pyrazol-5-yl)carboxamido)phenoxy]-3-E-[2-(pridin-2-yl)ethenyl]-1H-indazole], the IC50 in experiment [1] (setting [3]) was about 13 nM; in experiment [1] (read-out: HUVEC IC50) it was 1.3 nM. Also, the inhibition at 1 µM on CDK4/Cyclin D3 complex amounted to 9%; on LCK tyrosine kinase, 52%; at human FAK (FAKcd409) it was 6%; at human CHK1 (FL-CHK1), 0%; at CDK2/Cyclin A complex, 5%; in experiment [2] it was 46%.

The values are drawn from patent EP1614683B1, “Indazole compounds and pharmaceutical compositions for inhibiting protein kinases, and methods for their use” (priority 1999, dated 2001).
